The values that follow come from US11732560B1, “Nitrate treatment for injectivity improvement” (SAUDI ARABIAN OIL COMPANY, priority 2022, dated 2023).

The test system of assay [1] is sulfate reducing bacteria (SRB).
Method: The second injection rate, 23 mg/l, was maintained for three weeks.
Assay [2] relates to sulfide production. As to the method: (§1) A field experiment was conducted in an oil field water injection system to determine the effect of nitrate (NO3^-) for controlling sulfate reducing bacteria (SRB) in oilfield operations, and microbial influence corrosion (MIC) for surface pipelines.
In assay [3] the test system is NRSOB. How it is done: as §1
Assay [4] has as its system Nitrate Utilizing Bacterial (NUB). As to the kind of experiment: Field trial microbiological monitoring: planktonic NUB population. The class given is cell-based, nitrate utilizing bacteria. As to the method:
as §1

Like-named read-outs stand apart in the source and are kept apart here.

For the compound `O=[N+]([O-])O` [nitrate], the SRB activities in assay [1] (increase observed later after 23 mg/l period, maintained) is 101 SRB/ml; in assay [1] (nitrate 23 mg/l, at the end of three weeks) it was “below the detection limits”. Moreover, in assay [1] (nitrate 11 mg/l), the “minimum SRB achieved” value is reported as 10^1 bacteria/ml. The “drop in SRB activities” value in assay [1] (nitrate 45 mg/l, 10^2 SRB/ml before injection) came out at 50%. In addition, the sulfide level in assay [2] (nitrate 11 mg/L) amounted to 6.7 mg/L; in assay [2] (nitrate 23 mg/l), 8 mg/L. Also, in assay [2] (nitrate ion 45 mg/L, 15.8-17.3 ppm detected beforehand), the sulfide concentration was 8.3 ppm. Moreover, the NRSOB numbers in assay [3] (nitrate dose reduced, decreased from 10^6) is reported as 10^4 per ml; in assay [3] (over treatment with nitrate at 45 mg/L, increased from 10^3), 10^6 /ml. The NUB population in assay [4] (initially detected, start of nitrate treatment) is on record as 104 NUB/ml; in assay [4] (over nitrate treatment with 45 mg/L) it was ~10^6 NUB/ml. The “planktonic NUB population” value in assay [4] (nitrate reduced to 23 mg/L and 11 mg/L, over 7 days and after 56 days) was 106 mL⁻¹.
